Values quoted from earlier work as cited in patent US7329495B2 (Board of Regents, the University of Texas System, priority 2004, dated 2008).

Biological target: KIT protein (c-KIT K642E) (Homo sapiens, UniProt P10721, K642E)
Settings: human GIST cell line, homozygous exon 13 c-KIT K642E

Sequence of KIT protein (c-KIT K642E) (P10721 26-976 K642E): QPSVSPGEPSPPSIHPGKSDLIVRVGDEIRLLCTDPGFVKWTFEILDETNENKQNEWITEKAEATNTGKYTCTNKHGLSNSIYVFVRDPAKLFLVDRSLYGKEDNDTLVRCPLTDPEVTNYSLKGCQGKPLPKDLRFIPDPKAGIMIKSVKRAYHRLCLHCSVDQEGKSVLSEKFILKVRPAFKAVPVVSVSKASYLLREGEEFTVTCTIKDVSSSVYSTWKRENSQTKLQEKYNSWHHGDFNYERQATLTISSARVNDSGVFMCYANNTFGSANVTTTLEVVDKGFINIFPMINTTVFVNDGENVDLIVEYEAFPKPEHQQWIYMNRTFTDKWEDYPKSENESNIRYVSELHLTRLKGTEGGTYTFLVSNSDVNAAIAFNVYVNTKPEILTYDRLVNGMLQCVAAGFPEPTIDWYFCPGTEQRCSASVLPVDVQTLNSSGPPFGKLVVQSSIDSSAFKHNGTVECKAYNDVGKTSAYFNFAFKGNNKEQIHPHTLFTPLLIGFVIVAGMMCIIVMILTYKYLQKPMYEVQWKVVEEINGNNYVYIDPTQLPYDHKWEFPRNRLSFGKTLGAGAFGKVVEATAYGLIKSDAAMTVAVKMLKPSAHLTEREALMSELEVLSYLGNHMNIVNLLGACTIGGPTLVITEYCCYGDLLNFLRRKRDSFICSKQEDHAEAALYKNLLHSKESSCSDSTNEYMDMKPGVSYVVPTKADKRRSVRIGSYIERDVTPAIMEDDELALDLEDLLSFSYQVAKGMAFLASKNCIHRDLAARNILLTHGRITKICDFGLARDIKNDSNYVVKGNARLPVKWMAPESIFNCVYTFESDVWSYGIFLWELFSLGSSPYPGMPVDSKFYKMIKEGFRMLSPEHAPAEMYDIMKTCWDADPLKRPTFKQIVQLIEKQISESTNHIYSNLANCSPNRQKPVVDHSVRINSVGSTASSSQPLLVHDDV

Structure (SMILES): Cc1ccc(NC(=O)c2ccc(CN3CCN(C)CC3)cc2)cc1Nc1nccc(-c2cccnc2)n1 [imatinib]
- constitutive KIT tyrosine phosphorylation after introducing STI571 to the cells: abolished
